Laboratory results taken from ChEMBL document CHEMBL1150390, “Identification of halosalicylamide derivatives as a novel class of allosteric inhibitors of HCV NS5B polymerase” (Bioorg Med Chem Lett, 2008).
pIC50: −log10 of the molar value.

Experiments:
[1] = tested on: Hepatitis C virus; assay: Inhibition of HCV 1b NS5B polymerase; design: species or system Hepatitis C virus subtype 1b
[2] = Inhibition of HCV 3a NS5B polymerase; design: species or system Hepatitis C virus subtype 3a
[3] = Inhibition of HCV 1a NS5B polymerase; design: species or system Hepatitis C virus subtype 1a
[4] = Inhibition of HCV 2a NS5B polymerase; design: species or system Hepatitis C virus subtype 2a
[5] = Inhibition of HCV 2b NS5B polymerase; design: species or system Hepatitis C virus subtype 2b
[6] = target: Genome polyprotein (Hepatitis C virus genotype 1b (isolate BK) (HCV), UniProt P26663); assay: Inhibition of HCV BK NS5B polymerase
Sequence of Genome polyprotein (P26663 2420-3010 limits assumed): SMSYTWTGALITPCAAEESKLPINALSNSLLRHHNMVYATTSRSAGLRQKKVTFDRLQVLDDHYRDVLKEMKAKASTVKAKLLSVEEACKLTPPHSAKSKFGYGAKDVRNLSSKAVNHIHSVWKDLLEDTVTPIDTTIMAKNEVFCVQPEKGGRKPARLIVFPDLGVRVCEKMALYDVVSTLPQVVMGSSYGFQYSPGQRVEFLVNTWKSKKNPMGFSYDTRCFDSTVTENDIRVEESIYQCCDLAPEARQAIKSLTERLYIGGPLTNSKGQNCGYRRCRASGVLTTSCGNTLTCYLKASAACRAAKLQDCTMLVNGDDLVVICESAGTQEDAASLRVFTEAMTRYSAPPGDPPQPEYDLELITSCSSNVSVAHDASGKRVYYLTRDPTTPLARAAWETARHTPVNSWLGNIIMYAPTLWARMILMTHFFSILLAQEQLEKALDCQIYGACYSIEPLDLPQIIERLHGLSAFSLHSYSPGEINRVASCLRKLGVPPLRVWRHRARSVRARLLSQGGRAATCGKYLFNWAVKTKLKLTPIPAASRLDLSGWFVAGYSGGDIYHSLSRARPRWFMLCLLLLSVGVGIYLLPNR

Structure (SMILES) | pIC50 [1] | also measured
COc1cc(Br)ccc1NC(=O)c1cc(Cl)cc(Cl)c1OC | < 3.70 | 
Nc1c(Br)cc(Br)cc1C(=O)Nc1cccc(Br)c1 | 3.88 | 
Nc1ccc(NC(=O)c2cc(I)cc(I)c2O)cc1 | 4.52 | 
Oc1c(I)cc(I)cc1/C=N/c1ccc(Cl)cc1Cl | 5.06 | 
O=C(Nc1ccc(Cl)c(Cl)c1)c1cc(I)cc(I)c1O | 5.33 | pIC50 [2]: 4.84; pIC50 [3]: 5.24; pIC50 [4]: 4.79; pIC50 [5]: 4.76; pIC50 [6]: 5.07
COc1c(Cl)cc(Cl)cc1C(=O)Nc1ccc(Br)cc1 | < 3.70 | 
Nc1c(Br)cc(Br)cc1C(=O)Nc1ccc(Br)cc1 | 4.01 | 
O=C(Nc1ccc(Br)cc1)c1cc(Br)cc(Br)c1O [TRIBROMSALAN] | 5.17 | 
CC(=O)Oc1c(I)cc(I)cc1C(=O)Nc1ccc(Cl)c(Cl)c1 | < 3.70 | 
Cc1ccc(NC(=O)c2cc(I)cc(I)c2O)cc1 | 4.43 | 
CN(C(=O)c1cc(I)cc(I)c1O)c1ccc(Cl)c(Cl)c1 | < 3.70 | 
O=C(Nc1ccc(Oc2ccccc2)cc1)c1cc(I)cc(I)c1O | 5.25 | 
O=C(Nc1ccc(Nc2ccccc2)cc1)c1cc(I)cc(I)c1O | 5.72 | 
Cc1cc(NC(=O)c2cc(Cl)cc(Cl)c2O)ccc1Cl | 5.05 | 
COc1ccc(NC(=O)c2cc(I)cc(I)c2O)cc1 | 4.34 | 
O=C(Nc1ccc(Cl)cc1O)c1cc(I)cc(I)c1O | 5.07 | 
Cc1cc(NC(=O)c2cc(Cl)cc(Cl)c2N)ccc1Cl | 3.97 | 
O=C(Nc1ccc(Cl)cc1)c1cc(I)cc(I)c1O | 4.96 | 
O=C(Nc1ccccc1)c1cc(I)cc(I)c1O | 4.34 | 
O=C(Nc1ccc(Br)cc1)c1cc(I)cc(I)c1O | 5.00 | 
O=C(Nc1ccc(O)cc1)c1cc(I)cc(I)c1O | 4.27 | 
O=C(Nc1cccc(Br)c1)c1cc(Br)cc(Br)c1O | 5.16 | 
Nc1c(Cl)cc(Cl)cc1C(=O)Nc1ccc(Cl)c(Cl)c1 | 3.99 | 
O=C(Nc1ccc(F)cc1)c1cc(I)cc(I)c1O | 4.48 | 
CN(C(=O)c1cc(Br)cc(Br)c1O)c1ccc(Cl)cc1 | 3.87 | 
O=C(Nc1ccc(Cl)c(Cl)c1)c1cc(Cl)cc(Cl)c1O [3,3',4',5-TETRACHLOROSALICYLANILIDE] | 5.07 | 
